Results published in patent US10670605B2, “Cysteine reactive probes and uses thereof” (The Scripps Research Institute, priority 2015, dated 2020).

Experiments:
[1] = molecular target: T1, cysteines in MDA-MB-231 and Ramos cells (Homo sapiens, UniProt Q13158); assay: Competitive isoTOP-ABPP in situ (fragment-treated cells); assay type: cell-based; settings: 200 μM, insitu
T1 sequence (Q13158 1-208): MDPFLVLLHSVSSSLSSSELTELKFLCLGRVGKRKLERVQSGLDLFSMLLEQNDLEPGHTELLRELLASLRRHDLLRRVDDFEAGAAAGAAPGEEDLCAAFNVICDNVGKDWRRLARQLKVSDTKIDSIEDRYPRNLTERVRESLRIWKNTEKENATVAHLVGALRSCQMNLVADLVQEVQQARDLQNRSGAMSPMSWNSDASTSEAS

[2] = molecular target: T2, DDX59 C453 (Q5T1V6) (Homo sapiens, UniProt Q5T1V6); assay: Competitive isoTOP-ABPP, cell lysates; assay type: binding; settings: for R value (DMSO/fragment) / isoTOP-ABPP ratio, Q5T1V6_C453: 500 μM; for isoTOP-ABPP reactivity profile ratio, Q5T1V6_C453: 500 μm
T2 sequence (Q5T1V6 1-619): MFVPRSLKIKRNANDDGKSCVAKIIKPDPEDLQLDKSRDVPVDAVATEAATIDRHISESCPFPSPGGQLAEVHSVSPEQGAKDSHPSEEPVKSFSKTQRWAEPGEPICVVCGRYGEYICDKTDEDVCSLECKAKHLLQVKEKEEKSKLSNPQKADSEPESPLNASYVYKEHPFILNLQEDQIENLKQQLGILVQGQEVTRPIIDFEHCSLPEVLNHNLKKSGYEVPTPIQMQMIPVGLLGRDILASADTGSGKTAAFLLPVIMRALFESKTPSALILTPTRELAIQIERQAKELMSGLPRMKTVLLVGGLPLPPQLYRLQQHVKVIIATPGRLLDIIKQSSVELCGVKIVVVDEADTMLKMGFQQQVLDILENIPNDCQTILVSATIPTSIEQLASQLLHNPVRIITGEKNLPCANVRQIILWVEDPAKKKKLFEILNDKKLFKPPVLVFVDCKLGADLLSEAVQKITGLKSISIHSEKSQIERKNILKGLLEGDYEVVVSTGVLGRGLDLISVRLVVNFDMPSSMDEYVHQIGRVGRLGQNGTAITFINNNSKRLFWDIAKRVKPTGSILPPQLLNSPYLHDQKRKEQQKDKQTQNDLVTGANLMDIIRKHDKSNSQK

[3] = molecular target: T3, UBA7 C599 (P41226) (Homo sapiens, UniProt P41226); assay: Competitive isoTOP-ABPP, cell lysates; assay type: binding
T3 sequence (P41226 1-1012): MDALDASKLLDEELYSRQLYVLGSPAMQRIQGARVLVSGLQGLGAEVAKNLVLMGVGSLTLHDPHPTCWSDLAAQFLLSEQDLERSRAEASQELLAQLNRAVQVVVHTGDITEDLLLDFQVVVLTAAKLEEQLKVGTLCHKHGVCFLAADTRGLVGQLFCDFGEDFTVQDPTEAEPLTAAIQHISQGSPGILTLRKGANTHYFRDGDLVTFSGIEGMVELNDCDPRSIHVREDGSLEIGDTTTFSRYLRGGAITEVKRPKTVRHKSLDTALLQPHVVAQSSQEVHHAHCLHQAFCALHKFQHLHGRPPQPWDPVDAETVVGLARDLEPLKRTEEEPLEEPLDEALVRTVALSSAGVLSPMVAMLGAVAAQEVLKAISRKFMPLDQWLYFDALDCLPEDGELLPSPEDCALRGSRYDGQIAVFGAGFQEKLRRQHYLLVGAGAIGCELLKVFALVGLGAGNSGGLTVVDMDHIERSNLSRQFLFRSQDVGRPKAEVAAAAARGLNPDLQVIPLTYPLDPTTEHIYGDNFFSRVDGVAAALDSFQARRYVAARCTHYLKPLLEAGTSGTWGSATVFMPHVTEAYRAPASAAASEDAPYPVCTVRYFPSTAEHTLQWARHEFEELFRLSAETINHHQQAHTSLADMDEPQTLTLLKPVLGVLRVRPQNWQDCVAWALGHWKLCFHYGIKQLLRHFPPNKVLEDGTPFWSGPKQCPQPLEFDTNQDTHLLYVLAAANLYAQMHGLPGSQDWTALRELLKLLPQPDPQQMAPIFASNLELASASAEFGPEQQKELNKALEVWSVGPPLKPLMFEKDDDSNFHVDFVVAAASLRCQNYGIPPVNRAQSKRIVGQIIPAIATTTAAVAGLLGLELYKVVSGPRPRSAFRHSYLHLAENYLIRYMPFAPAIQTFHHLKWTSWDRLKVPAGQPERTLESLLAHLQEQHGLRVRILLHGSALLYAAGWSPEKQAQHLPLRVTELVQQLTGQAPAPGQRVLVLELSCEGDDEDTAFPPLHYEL

**Q.** How did the “isoTOP-ABPP reactivity Q13158_C98 FADD” value [1]; 231 turn out when `COc1ccc2c(c1)CCCN2C(=O)CCl` [compound 2] was run?
**A.** 20.0

**Q.** What about the “R value (DMSO/fragment)” value ([2]; in vitro, MDA-MB-231) of the same molecule?
**A.** 20.0

**Q.** What about the “R value (DMSO/fragment)” value ([2]; invitro, ramos) of the same molecule?
**A.** 20.0

**Q.** With `O=C(CCl)Nc1cc(C(F)(F)F)cc(C(F)(F)F)c1` [compound 3] as the molecule, how does the “R value (DMSO/fragment)” value ([2]; in vitro, MDA-MB-231) read?
**A.** 20.0

**Q.** Which “R value (DMSO/fragment)” value ([3]; 250 μM, in vitro, Ramos) does the source give for `COc1ccc(C2CC(c3cccs3)=NN2C(=O)CCl)cc1` (centres unmarked) [compound 4] here?
**A.** 20.0

**Q.** How did the “isoTOP-ABPP ratio, Q5T1V6_C453” value ([2]; invitro, 231) turn out when `Cn1cc(S(=O)(=O)N2CCOCC2)cc1C(=O)NC(=O)CCl` [compound 11] was run?
**A.** 20.0

**Q.** And the “isoTOP-ABPP ratio, P41226_C599” value ([3]; 500 μM, invitro, ramos)?
**A.** 1.9

**Q.** What does the source list for `O=C(CCl)NCCc1c[nH]c2ccccc12` [compound 13]?
**A.** isoTOP-ABPP ratio, cysteine Q13158_C98 [1]; 231: 1.6; isoTOP-ABPP ratio, Q5T1V6_C453 ([2]; invitro, ramos): 1.4

**Q.** With `O=C(CCl)N1CCC(C(O)(c2ccccc2)c2ccccc2)CC1` [compound 20] as the molecule, how does the “isoTOP-ABPP ratio (reactivity profile), P41226_C599” value ([3]; 500 μm in-vitro ramos) read?
**A.** 12.2

**Q.** What about the “isoTOP-ABPP ratio (reactivity profile), P41226_C599” value ([3]; 500 μm in-vitro ramos_231) of the same molecule?
**A.** 1.1

**Q.** `O=C(CCl)NC12CC3CC(CC(C3)C1)C2` [compound 21] was tested. Which “isoTOP-ABPP ratio (reactivity profile), P41226_C599” value ([3]; 500 μm in-vitro ramos) did it give?
**A.** 2.5

**Q.** Which “isoTOP-ABPP ratio (reactivity profile), P41226_C599” value ([3]; 500 μm in-vitro ramos) does the source give for `N#C/C(=C\c1cc(C(F)(F)F)cc(C(F)(F)F)c1)C(N)=O` [compound 23] here?
**A.** 3.2

**Q.** For `CC(Br)C(=O)Nc1cc(C(F)(F)F)cc(C(F)(F)F)c1` (centres unmarked) [compound 24], which “isoTOP-ABPP ratio (reactivity profile), Q5T1V6_C453” value ([2]; 500 μm in-vitro ramos) is on record?
**A.** 1.7

**Q.** How did the “isoTOP-ABPP ratio (reactivity profile), Q5T1V6_C453” value ([2]; 500 μm in-vitro ramos_231) turn out when `CC(Cl)C(=O)Nc1cc(C(F)(F)F)cc(C(F)(F)F)c1` (centres unmarked) [compound 25] was run?
**A.** 0.9

**Q.** What does the source list for `CC(C)CCOCCNC(=O)CCl` [compound 27]?
**A.** isoTOP-ABPP ratio Q13158_C98 [1]; 231: 0.6; isoTOP-ABPP ratio (reactivity profile), Q5T1V6_C453 ([2]; 500 μm in-vitro ramos_231): 1.0; isoTOP-ABPP ratio (reactivity profile), P41226_C599 ([3]; 500 μm in-vitro ramos): 1.3; isoTOP-ABPP ratio (reactivity profile), P41226_C599 ([3]; 500 μm in-vitro ramos_231): 0.7

**Q.** For `O=C(CCl)N1CCN(CC(=O)N2CCOCC2)CC1` [compound 29], which “isoTOP-ABPP ratio Q13158_C98” value ([1]; ramos) is on record?
**A.** 1.3

**Q.** How did the “isoTOP-ABPP ratio Q13158_C98” value [1]; 231 turn out when `C=CC(=O)N(Cc1cccnc1)c1cc(C(F)(F)F)cc(C(F)(F)F)c1` [compound 31] was run?
**A.** 0.9

**Q.** `O=C(CCl)Nc1ccccc1C1CCCCCC1` [compound 35] was tested. Which “isoTOP-ABPP reactivity ratio, P41226_C599” value ([3]; 500 μm, in-vitro_ramos) did it give?
**A.** 1.2

**Q.** How did the “isoTOP-ABPP ratio Q13158_C98” value [1]; 231 turn out when `C=CC(=O)Nc1cc(F)c(N2CCN(C(=O)OC(C)(C)C)CC2)c(F)c1` [compound 38] was run?
**A.** 1.5

**Q.** For `N#CC(=Cc1ccc(-c2ccccc2Cl)o1)C(N)=O` [compound 42], which “isoTOP-ABPP reactivity profile ratio, Q5T1V6_C453” value ([2]; in-vitro_ramos) is on record?
**A.** 1.0

**Q.** For `COc1cc(NC(=O)CCl)cc(OC)c1` [compound 43], which “isoTOP-ABPP reactivity profile ratio, Q5T1V6_C453” value ([2]; in-vitro_ramos_231) is on record?
**A.** 20.0

**Q.** Which “isoTOP-ABPP reactivity profile ratio, Q5T1V6_C453” value ([2]; in-vitro_ramos) does the source give for `O=C(CCl)Nc1cccc2ncccc12` [compound 51] here?
**A.** 1.8
